Source: patent publication US20220087987A1, “A METHOD FOR TREATING SWI/SNF COMPLEX-DEFICIENT CANCERS COMPRISING GLUTATHIONE (GSH) METABOLIC PATHWAY INHIBITOR” (National Cancer Center, priority 2018, published 2022)

How the values were obtained:
[1] = test system: ARID1A-proficient and ARID1A-deficient cancer cell lines; experiment: Cell viability and colony formation in cancer cell line panel; format: cell-based, human
[2] = test system: ARID1A-KO cells and ARID1A-deficient cancer cells; experiment: Apoptosis detection (cleaved caspase-3/7, Annexin V); format: cell-based, human
Description: The Annexin V-FITC/PI Apoptosis Detection Kit (Sigma-Aldrich) was used to detect apoptotic cells. Briefly, the cell pellet was suspended in 1× binding buffer and then incubated with Annexin V-FITC and PI in the dark for 10 min. Fluorescence was analyzed on a Guava flow cytometer (Millipore). Data were analyzed using GuavaSoft software (v. 2.7). Relative ratios of the Annexin V-positive fraction in treated samples were normalized against untreated samples.
GSH, ROS and apoptosis were detected using the GSH/GSSG-Glo Assay (Promega) and/or the GSH-Glo Assay (Promega), the ROS-Glo Assay (Promega), and the Caspase-Glo 3/7 Assay, respectively. To measure levels of GSH, ROS and apoptosis after drug treatment, cells were trypsinized, counted, reseeded at the specified density in 96-well plates and exposed to the indicated concentrations of drugs. After 16-48 hrs, luminescence was measured using an Envision Multi-label plate reader (PerkinElmer). […] Cells were trypsinized after a further 48 hrs, counted, and reseeded at the specified density in 96-well plates. After 72-120 hrs, luminescence was measured using an Envision Multi-label plate reader (PerkinElmer). Cell viability was also measured using the CellTiter-Glo Luminescent Cell Viability Assay (Promega). […] The GSH/GSSG ratio was calculated as the GSH-GSSG signal divided by the GSSG/2 signal. […]

GSH = experiment: Detection of GSH in cells (GSH/GSSG-Glo, GSH-Glo); format: cell-based, human; settings: ARID1A-deficient versus ARID1A-proficient ovarian and other cancer cells
ROS = experiment: Detection of ROS in cells (ROS-Glo); format: cell-based, human; settings: ARID1A-deficient versus ARID1A-proficient ovarian and other cancer cells
Description: GSH, ROS and apoptosis were detected using the GSH/GSSG-Glo Assay (Promega) and/or the GSH-Glo Assay (Promega), the ROS-Glo Assay (Promega), and the Caspase-Glo 3/7 Assay, respectively. To measure levels of GSH, ROS and apoptosis after drug treatment, cells were trypsinized, counted, reseeded at the specified density in 96-well plates and exposed to the indicated concentrations of drugs. After 16-48 hrs, luminescence was measured using an Envision Multi-label plate reader (PerkinElmer). To measure levels of GSH and ROS after siRNA-mediated knockdown, cell lines were transfected with siRNAs (25 nM) using Lipofectamine RNAiMAX. After 48 hrs, cells were trypsinized and transfected repeatedly with siRNAs (25 nM) using Lipofectamine RNAiMAX. Cells were trypsinized after a further 48 hrs, counted, and reseeded at the specified density in 96-well plates. After 72-120 hrs, luminescence was measured using an Envision Multi-label plate reader (PerkinElmer). Cell viability was also measured using the CellTiter-Glo Luminescent Cell Viability Assay (Promega). Caspase-3/7, GSH, and ROS levels were normalized against cell viability. The GSH/GSSG ratio was calculated as the GSH-GSSG signal divided by the GSSG/2 signal. Relative signal ratios in treated samples were normalized against untreated samples.

ovarian PDCs = experiment: Cell viability of ovarian patient-derived cancer cells; format: cell-based, human; settings: 33 μM APR-246 or 100 μM BSO for 6 days
Description: Tumor samples and ascites were obtained from four ovarian cancer patients who underwent surgery or cell-free and concentrated ascites reinfusion therapy at the National Cancer Center Hospital or Kaname-cho Hospital (Tokyo, Japan) and were cultured in vitro. This protocol was approved by the Institutional Review Board of the National Cancer Center (Tokyo, Japan), and informed consent was obtained from the patients. To establish CCCO219 and CCC1216 PDCs, patient ascites (24 ml) were diluted in two volumes of PBS containing 2 mM EDTA, layered over 15 ml Ficoll-Paque PLUS (GE Healthcare), and centrifuged at 2200 rpm for 30 min. The interphase mononuclear layer was transferred to a fresh conical tube and washed twice with PBS containing 2 mM EDTA. […]
Cell viability was examined by measuring the cellular ATP level using the CellTiter-Glo Luminescent Cell Viability Assay (Promega). […] Cells were trypsinized after a further 48 hrs, counted, and reseeded at the specified density in 96-well plates. To measure cell viability after drug treatment, cells were trypsinized, counted, reseeded at the specified density in 96-well plates, and exposed to the indicated concentrations of drugs. Cell viability was measured using the CellTiter-Glo Luminescent Cell Viability Assay. Luminescence was measured using an Envision Multi-label plate reader (PerkinElmer).

[3] = test system: ARID1A-deficient TOV21G OCCC xenografts; experiment: Mouse xenograft model, TOV21G; format: in vivo, mice; settings: APR-246 50 mg/kg
Description: All mouse experiments were approved by the National Cancer Center (NCC) animal Ethical Committee. Cells were counted and re-suspended in a 1:1 mixture of 100 μl culture medium and 100 μl Matrigel (BD Biosciences) on ice. […] In the subcutaneous model, once the tumors were palpable (about 3-14 days after implantation), mice were randomly divided into two groups. […] In the doxycycline (Dox) treatment study, TOV21G-shNT cells and TOV21G-shGCLC cells were injected into the flanks of 6-week-old female BALB/c-nu/nu mice. […] In other experiments, TOV21G-shNT cells and TOV21G-shGCLC cells were treated with Dox (0.5 μg/ml) for 4 days and then injected into the flank of 6-week-old female BALB/c-nu/nu mice. […] Tumor growth was measured every several days using calipers. The volume of implanted tumors was calculated using the formula V=L×W2/2, where V is volume (mm^3), L is the largest diameter (mm), and W is the smallest diameter (mm). At the end of the experiment, mice were sacrificed in accordance with standard protocols.
GSH was detected using the GSH-Glo Assay (Promega). Tumor samples derived from xenografts were weighed and washed with PBS. The tumor samples were mixed with 50 μl of PBS and homogenized using a Mini Cordless Grinder (Funakoshi). PBS (950 μl) was added to homogenized tumor samples and centrifuged at 4° C. for 10 min at 15,000 rpm. Tumor extract and 2×GSH-Glo Reagent (25 μl of each) were mixed in white 96-well plates (Greiner) and incubated for 30 min at room temperature. Luciferin Detection Reagent (50 μl) was added and the samples were incubated for 15 min at room temperature. Luminescence was measured using an Envision Multi-label plate reader (PerkinElmer). GSH signal intensities per 1 mg of tumor sample were calculated.
Formalin-fixed, paraffin-embedded ovarian cancer clinical specimens and TOV21G xenografts were deparaffinized and representative whole 4-μm-thick sections were analyzed by IHC. […] The samples were removed from the freezer and equilibrated at −20° C. for approximately 15 minutes before sectioning. Tissue sections (6 μm thick) were placed on positively charged slides, dried, and fixed for 15 minutes at room temperature in 3% formaldehyde, followed by 5 minutes in methanol at −20° C. After fixation, representative sections were analyzed by IHC. […] All IHC staining was performed using a Dako autostainer Link48 (Dako).
First, membrane staining intensity (0, 1+, 2+, or 3+) was determined for each cell in a fixed field. The H-score was assigned using the following formula: [1×(% cells 1+)+2×(% cells 2+)+3×(% cells 3+)]. The final score, ranging from 0 to 300, gives more relative weight to higher-intensity membrane staining in a given tumor sample. The percentage of NOXA-, cleaved caspase-3-, cleaved PARP- and Ki67-positive cells (of the total number of cells) in each slide were counted.

[4] = test system: diffuse-type gastric cancer PDCs; experiment: Cell viability of diffuse-type gastric cancer PDCs; format: cell-based, human; settings: treatment for 6 days
[5] = test system: uterine cancer cell lines; experiment: Cell viability of uterine cancer cell lines; format: cell-based, human; settings: treatment for 6 days
Description: (§1) Cell viability was examined by measuring the cellular ATP level using the CellTiter-Glo Luminescent Cell Viability Assay (Promega). To measure cell viability after siRNA-mediated knockdown, cell lines were transfected with siRNAs (25 nM) using Lipofectamine RNAiMAX. After 48 hrs, cells were trypsinized and repeatedly transfected with siRNAs (25 nM) using Lipofectamine RNAiMAX. Cells were trypsinized after a further 48 hrs, counted, and reseeded at the specified density in 96-well plates. To measure cell viability after drug treatment, cells were trypsinized, counted, reseeded at the specified density in 96-well plates, and exposed to the indicated concentrations of drugs. Cell viability was measured using the CellTiter-Glo Luminescent Cell Viability Assay. Luminescence was measured using an Envision Multi-label plate reader (PerkinElmer).

[6] = test system: bile duct cancer cell lines; experiment: Cell viability of bile duct cancer cell lines; format: cell-based, human; settings: treatment for 6 days
Description: as §1

[7] = test system: SWI/SNF complexes (SMARCA2, SMARCA4, SMARCB1, PBRM1) deficient cancer cells; experiment: Cell viability of SWI/SNF complex-deficient cancer cell lines; format: cell-based, human; settings: treatment for 6 days
Description: as §1

CCCCS(=N)(=O)CCC(N)C(=O)O (stereo not shown) [BSO, buthionine sulfoximine]
sensitivity of ARID1A-deficient TOV21G versus ARID1A-proficient RMG-I ovarian cancer cells ([1]; cell viability after 3 days): more sensitive than ARID1A-proficient RMG-I ovarian cancer cells
sensitivity of ARID1A-deficient versus ARID1A-proficient cancer cells ([1]; four ARID1A-proficient and six ARID1A-deficient cell lines, cell viability, colony formation): selectively sensitive to BSO
apoptosis (caspase activation, Annexin V) [2]: increased apoptosis
GSH level in cancer cell lines (GSH): decreased the GSH level
ROS level in cancer cell lines (ROS): increased ROS levels
sensitivity of ARID1A-deficient versus ARID1A-positive PDCs (ovarian PDCs): more sensitive
tumor weight ([3]; BSO 750 mg/kg): reduced tumor weight
body weight of mice ([3]; BSO 750 mg/kg once a day): without loss of body weight
growth of xenografts (tumor volume) ([3]; intraperitoneally once daily 12-14 days, BSO 750 mg/kg): markedly suppressed xenograft growth
sensitivity to BSO (relative AUC for cell viability) [4]: sensitized ARID1A-deficient PDCs more efficiently than ARID1A-proficient PDCs
sensitivity to BSO of uterine cancer cell lines [5]: sensitized ARID1A-deficient cell lines more efficiently than ARID1A-proficient cell lines
sensitivity to BSO of bile duct cancer cell lines [6]: sensitized ARID1A-deficient cell lines more efficiently than ARID1A-proficient cell lines
sensitivity to BSO (relative AUC for cell viability) [7]: sensitized these SWI/SNF complexes deficient cell lines more efficiently than these SWI/SNF complexes proficient cell lines
